Values joined by “and” are separate entries in the source; they are usually repeats but may differ in a detail not shown here. Identical values can stand only once. Inconclusive results and toxic doses are left out.
Test system: P388 leukemia ip, CD2F1 mice, survival T/C
Test: NCI In Vivo Anticancer Drug Screen. Data for tumor model P388 Leukemia (intraperitoneal) in CD2F1 (CDF1) mice
Conditions: endpoint: median survival time, higher = longer survival
Summary of the method: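 Mice carrying the transplanted tumor received test compound or vehicle. Survival was recorded in each group, and the value is the treated-group measurement divided by that of the vehicle-treated control group.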

[1] = dose: 50.0 mg/kg/injection, schedule: Q01DX009 (ip), vehicle: Klucel (hydroxypropylcellulose) (HPC)
[2] = dose: 50.0 mg/kg/injection, schedule: Q01DX009 (ip), vehicle: saline
[3] = dose: 100.0 mg/kg/injection, schedule: Q01DX009 (ip), vehicle: saline
[4] = dose: 400.0 mg/kg/injection, schedule: Q01DX009 (ip), vehicle: Klucel (hydroxypropylcellulose) (HPC)
[5] = dose: 50.0 mg/kg/injection, schedule: Q01DX005 (ip), vehicle: saline with Tween-80
[6] = dose: 100.0 mg/kg/injection, schedule: Q01DX005 (ip), vehicle: saline with Tween-80
[7] = dose: 200.0 mg/kg/injection, schedule: Q01DX005 (ip), vehicle: saline with Tween-80
[8] = dose: 60.0 mg/kg/injection, schedule: Q01DX005 (ip), vehicle: saline
[9] = dose: 120.0 mg/kg/injection, schedule: Q01DX005 (ip), vehicle: saline
[10] = dose: 240.0 mg/kg/injection, schedule: Q01DX005 (ip), vehicle: saline
[11] = dose: 60.0 mg/kg/injection, schedule: Q01DX005 (ip), vehicle: saline with Tween-80
[12] = dose: 120.0 mg/kg/injection, schedule: Q01DX005 (ip), vehicle: saline with Tween-80
[13] = dose: 240.0 mg/kg/injection, schedule: Q01DX005 (ip), vehicle: saline with Tween-80
[14] = dose: 100.0 mg/kg/injection, schedule: Q01DX009 (ip), vehicle: Klucel (hydroxypropylcellulose) (HPC)
[15] = dose: 60.0 mg/kg/injection, schedule: Q01DX005 (ip), vehicle: Klucel (hydroxypropylcellulose) (HPC)
[16] = dose: 120.0 mg/kg/injection, schedule: Q01DX005 (ip), vehicle: Klucel (hydroxypropylcellulose) (HPC)
[17] = dose: 240.0 mg/kg/injection, schedule: Q01DX005 (ip), vehicle: Klucel (hydroxypropylcellulose) (HPC)
[18] = dose: 100.0 mg/kg/injection, schedule: Q04DX003 (ip), vehicle: saline with Tween-80
[19] = dose: 200.0 mg/kg/injection, schedule: Q04DX003 (ip), vehicle: saline with Tween-80
[20] = dose: 400.0 mg/kg/injection, schedule: Q04DX003 (ip), vehicle: saline with Tween-80

Compound: O=c1[nH]cccc1O
- T/C (dose: 16.0 mg/kg/injection, schedule: Q01DX009 (ip), vehicle: saline with Tween-80): 115 % of control
- T/C (dose: 32.0 mg/kg/injection, schedule: Q01DX009 (ip), vehicle: saline with Tween-80): 122 % of control
- T/C [1]: 109 % of control and 113 % of control
- T/C [2]: 105 % of control and 110 % of control
- T/C (dose: 64.0 mg/kg/injection, schedule: Q01DX009 (ip), vehicle: saline with Tween-80): 112 % of control
- T/C [3]: 100 % of control and 111 % of control
- T/C (dose: 200.0 mg/kg/injection, schedule: Q01DX009 (ip), vehicle: saline): 112 % of control and 115 % of control
- T/C [4]: 98 % of control
- T/C (dose: 512.0 mg/kg/injection, schedule: Q01DX009 (ip), vehicle: saline with Tween-80): 153 % of control

Compound: Cc1ccc2c(c1)C1(C)OC(C=CC1(C)O)O2 (configuration not stated)
- T/C [5]: 101 % of control
- T/C [6]: 106 % of control
- T/C [7]: 106 % of control

Compound: Cc1ccc(N(CC(=O)O)S(=O)(=O)c2ccccc2)c(C)c1Cc1cccc(Br)c1
- T/C [5]: 101 % of control
- T/C [6]: 104 % of control
- T/C [7]: 101 % of control

Compound: CC(C)=CCc1cc2c(cc1O)OC[C@H]1c3cc4c(cc3O[C@@H]21)OCO4
- T/C (dose: 100.0 mg/kg/injection, schedule: Q01DX001 (ip), vehicle: Klucel (hydroxypropylcellulose) (HPC)): 91 % of control
- T/C (dose: 200.0 mg/kg/injection, schedule: Q01DX001 (ip), vehicle: Klucel (hydroxypropylcellulose) (HPC)): 96 % of control
- T/C (dose: 400.0 mg/kg/injection, schedule: Q01DX001 (ip), vehicle: Klucel (hydroxypropylcellulose) (HPC)): 91 % of control

Compound: N/C(Cc1noc2ccccc12)=N\O
- T/C [2]: 109 % of control
- T/C [3]: 107 % of control

Compound: O=C1Cc2cc3c(cc2C=C2CCCN12)OCO3
- T/C (dose: 6.25 mg/kg/injection, schedule: Q01DX009 (ip), vehicle: water): 100 % of control
- T/C (dose: 12.5 mg/kg/injection, schedule: Q01DX009 (ip), vehicle: water): 100 % of control
- T/C (dose: 25.0 mg/kg/injection, schedule: Q01DX009 (ip), vehicle: water): 103 % of control
- T/C (dose: 50.0 mg/kg/injection, schedule: Q01DX009 (ip), vehicle: water): 106 % of control
- T/C (dose: 100.0 mg/kg/injection, schedule: Q01DX009 (ip), vehicle: water): 100 % of control

Compound: ClCCN(CCCl)c1ccc(/C=N/Nc2ccnc3ccccc23)cc1
- T/C (dose: 0.39 mg/kg/injection, schedule: Q01DX009 (ip), vehicle: DMSO): 92 % of control
- T/C (dose: 0.78 mg/kg/injection, schedule: Q01DX009 (ip), vehicle: DMSO): 87 % of control
- T/C (dose: 1.56 mg/kg/injection, schedule: Q01DX009 (ip), vehicle: DMSO): 90 % of control

Compound: CC1(C)C2CC[C@@]1(CS(=O)(=O)N(CCCl)CCCl)C(=O)C2
- T/C (dose: 30.0 mg/kg/injection, schedule: Q01DX005 (ip), vehicle: saline): 99 % of control
- T/C [8]: 98 % of control
- T/C [9]: 96 % of control
- T/C [10]: 96 % of control

Compound: CC1=CC=C(C(=O)C(Br)C(Br)c2ccccc2)C1 (configuration not stated)
- T/C (dose: 6.25 mg/kg/injection, schedule: Q01DX009 (ip), vehicle: Klucel (hydroxypropylcellulose) (HPC)): 92 % of control
- T/C (dose: 12.5 mg/kg/injection, schedule: Q01DX009 (ip), vehicle: Klucel (hydroxypropylcellulose) (HPC)): 92 % of control
- T/C (dose: 25.0 mg/kg/injection, schedule: Q01DX009 (ip), vehicle: Klucel (hydroxypropylcellulose) (HPC)): 89 % of control

Compound: O=c1c2cc(Cl)ccc2on1CN1CCOCC1
- T/C [5]: 111 % of control
- T/C [6]: 118 % of control
- T/C [7]: 111 % of control

Compound: CC1(C)N=C(N)N=C(N)N1c1cccc(CCCCc2ccccc2)c1
- T/C (dose: 0.75 mg/kg/injection, schedule: Q01DX009 (ip), vehicle: saline sonified): 109 % of control
- T/C (dose: 1.5 mg/kg/injection, schedule: Q01DX009 (ip), vehicle: saline sonified): 113 % of control
- T/C (dose: 3.0 mg/kg/injection, schedule: Q01DX009 (ip), vehicle: saline sonified): 118 % of control
- T/C (dose: 50.0 mg/kg/injection, schedule: Q04DX003 (ip), vehicle: saline sonified): 86 % of control

Compound: Cc1cc2nnn(-c3ncccc3[N+](=O)[O-])c2cc1C
- T/C [11]: 104 % of control
- T/C [12]: 101 % of control
- T/C [13]: 101 % of control

Compound: Nc1c(S(=O)(=O)O)cc(Nc2cccc(S(=O)(=O)/C=C/S(=O)(=O)O)c2)c2c1C(=O)c1ccccc1C2=O
- T/C [8]: 99 % of control
- T/C [9]: 104 % of control
- T/C [10]: 111 % of control

Compound: CNC(=O)OCc1nn(-c2ccc(Cl)c(Cl)c2)c(C)c1COC(=O)NC
- T/C (dose: 12.5 mg/kg/injection, schedule: Q01DX009 (ip), vehicle: distilled water + Tween-80): 87 % of control and 93 % of control
- T/C (dose: 25.0 mg/kg/injection, schedule: Q01DX009 (ip), vehicle: distilled water + Tween-80): 86 % of control and 89 % of control
- T/C (dose: 50.0 mg/kg/injection, schedule: Q01DX009 (ip), vehicle: distilled water + Tween-80): 90 % of control
- T/C (dose: 100.0 mg/kg/injection, schedule: Q01DX009 (ip), vehicle: distilled water + Tween-80): 88 % of control
- T/C (dose: 200.0 mg/kg/injection, schedule: Q01DX009 (ip), vehicle: distilled water + Tween-80): 86 % of control and 87 % of control

Compound: Cc1nn(C(=O)c2ccncc2)c(C)c1N=Nc1ccc(S(N)(=O)=O)cc1
- T/C [1]: 105 % of control
- T/C [14]: 101 % of control

Compound: O=c1[nH]c2cc(Cl)ccc2nc1/C=C(\O)c1cccc([N+](=O)[O-])c1
- T/C [15]: 102 % of control
- T/C [16]: 97 % of control
- T/C [17]: 101 % of control

Compound: CS(=O)Cc1cc(-c2ccccc2)no1 (configuration not stated)
- T/C [11]: 99 % of control
- T/C [12]: 104 % of control
- T/C [13]: 97 % of control

Compound: O=C(Nc1ccc(Nc2ccc(NC(=O)c3ccccc3)c3c2C(=O)c2ccccc2C3=O)c2c1C(=O)c1ccccc1C2=O)c1ccccc1
- T/C [18]: 95 % of control
- T/C [19]: 100 % of control
- T/C [20]: 100 % of control

Compound: C[C@]12CC[C@H]3[C@@H](CCC4=C[C@@H](OC5OCC(OC6OC(CO)C(O)C(O)C6O)C(O)C5O)CC[C@@]43C=O)[C@@]1(O)CCC2C1=CC(=O)OC1 (some centres not stated)
- T/C (dose: 0.16 mg/kg/injection, schedule: Q01DX009 (ip), vehicle: saline): 105 % of control
- T/C (dose: 0.25 mg/kg/injection, schedule: Q01DX009 (ip), vehicle: saline with Tween-80): 95 % of control
- T/C (dose: 0.31 mg/kg/injection, schedule: Q01DX009 (ip), vehicle: saline): 108 % of control
- T/C (dose: 0.5 mg/kg/injection, schedule: Q01DX009 (ip), vehicle: saline with Tween-80): 107 % of control and 95 % of control
- T/C (dose: 0.63 mg/kg/injection, schedule: Q01DX009 (ip), vehicle: saline): 103 % of control
- T/C (dose: 1.0 mg/kg/injection, schedule: Q01DX009 (ip), vehicle: saline with Tween-80): 117 % of control and 97 % of control
- T/C (dose: 1.25 mg/kg/injection, schedule: Q01DX009 (ip), vehicle: saline): 103 % of control

Compound: c1ccc2c(c1)ncc1cccn12
- T/C [1]: 106 % of control
- T/C [14]: 107 % of control
- T/C (dose: 200.0 mg/kg/injection, schedule: Q01DX009 (ip), vehicle: Klucel (hydroxypropylcellulose) (HPC)): 105 % of control
- T/C [4]: 106 % of control

Compound: Cc1ccc(S(=O)(=O)NC(CSCc2ccccc2)C(=O)O)cc1 (configuration not stated)
- T/C [18]: 100 % of control
- T/C [19]: 100 % of control
- T/C [20]: 100 % of control

Compound: CNC[C@@H](O)c1ccc(O)c(O)c1
- T/C (dose: 0.78 mg/kg/injection, schedule: Q01DX009 (ip), vehicle: suspension in saline): 97 % of control
- T/C (dose: 1.56 mg/kg/injection, schedule: Q01DX009 (ip), vehicle: suspension in saline): 104 % of control
- T/C (dose: 3.12 mg/kg/injection, schedule: Q01DX009 (ip), vehicle: suspension in saline): 104 % of control

Compound: COc1ccc(OC)c(NC(=O)SC(C)C)c1
- T/C [15]: 93 % of control
- T/C [16]: 96 % of control
- T/C [17]: 92 % of control

Compound: O=c1c(F)cn(-c2ccco2)c(=O)n1-c1ccco1
- T/C (dose: 37.5 mg/kg/injection, schedule: Q04DX003 (ip), vehicle: saline + alcohol): 103 % of control
- T/C (dose: 75.0 mg/kg/injection, schedule: Q04DX003 (ip), vehicle: saline + alcohol): 100 % of control
- T/C (dose: 150.0 mg/kg/injection, schedule: Q04DX003 (ip), vehicle: saline + alcohol): 96 % of control
